Measured values from patent US20220048915A1 (SHANGHAI PHARMACEUTICALS HOLDING CO., LTD., priority 2018, published 2022).
Where two headings read alike, the source gives them in different places.

Legend:
Experiment in all cases: In vitro inhibition of p38 kinase (LANCE Ultra TR-FRET)
Format in all cases: biochemical
[1] = target: T1, p38γ (Homo sapiens, UniProt P53778)
T1 sequence (P53778 1-367): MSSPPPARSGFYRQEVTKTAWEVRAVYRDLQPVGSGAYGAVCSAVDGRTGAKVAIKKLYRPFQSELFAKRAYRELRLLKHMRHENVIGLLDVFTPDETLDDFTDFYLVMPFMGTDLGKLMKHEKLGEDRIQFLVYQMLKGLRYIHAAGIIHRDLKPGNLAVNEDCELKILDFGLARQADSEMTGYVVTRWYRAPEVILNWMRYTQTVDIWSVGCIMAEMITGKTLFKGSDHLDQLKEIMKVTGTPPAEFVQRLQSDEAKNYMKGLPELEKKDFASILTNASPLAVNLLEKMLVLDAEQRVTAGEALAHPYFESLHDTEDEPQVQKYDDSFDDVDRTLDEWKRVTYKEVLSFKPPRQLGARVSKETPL
Description: 10 mM of the storage solution of the test compound was taken and placed in a 96-well compound plate, and using DMSO for the compound at an initial concentration of 100×, which was then used as the first concentration and then carried out a 3-fold gradient dilution with DMSO for a total of 10 concentrations. After that, 1 μL of gradient dilutions were added to 19 μL of 1× reaction buffer to prepare 5× compound for later use. […] To the compound-free control well was added 2 μL of the following liquid: 19 μL of 1× reaction buffer with addition of 1 μL of DMSO. To the Min control well was added 2 μL of 250 mM EDTA.
1× of LANCE® Detection value Buffer was used to prepare a 2×Antibody for use, and the amount was 5 μL per well, at the same time 10 mM EDTA was prepared for later use. After the enzyme reaction was carried out for 30 minutes, 5 μL 10 mM EDTA was added to the 384-well plate and the reaction was carried out at room temperature for 5 minutes. Afterwards, 5 μL LANCE® Ultra Europium-anti-phospho-eIF4E-binding protein 1 (Thr37/46) was added to the 384-well plate and the reaction was carried out at room temperature for one hour.

[2] = target: p38α (Homo sapiens, UniProt Q16539)
Sequence of p38α (Q16539 whole entry): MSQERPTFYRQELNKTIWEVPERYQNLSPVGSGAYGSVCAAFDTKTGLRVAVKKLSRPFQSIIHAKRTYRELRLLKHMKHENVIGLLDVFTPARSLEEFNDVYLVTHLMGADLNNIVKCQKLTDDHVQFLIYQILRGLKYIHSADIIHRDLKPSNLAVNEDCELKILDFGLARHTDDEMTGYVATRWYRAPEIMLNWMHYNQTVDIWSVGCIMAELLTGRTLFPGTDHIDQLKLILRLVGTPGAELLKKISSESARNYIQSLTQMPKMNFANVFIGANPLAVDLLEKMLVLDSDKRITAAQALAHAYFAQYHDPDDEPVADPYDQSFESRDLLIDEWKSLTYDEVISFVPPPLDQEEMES

[3] = target: p38β (Homo sapiens, UniProt Q15759)
Sequence of p38β (Q15759 whole entry): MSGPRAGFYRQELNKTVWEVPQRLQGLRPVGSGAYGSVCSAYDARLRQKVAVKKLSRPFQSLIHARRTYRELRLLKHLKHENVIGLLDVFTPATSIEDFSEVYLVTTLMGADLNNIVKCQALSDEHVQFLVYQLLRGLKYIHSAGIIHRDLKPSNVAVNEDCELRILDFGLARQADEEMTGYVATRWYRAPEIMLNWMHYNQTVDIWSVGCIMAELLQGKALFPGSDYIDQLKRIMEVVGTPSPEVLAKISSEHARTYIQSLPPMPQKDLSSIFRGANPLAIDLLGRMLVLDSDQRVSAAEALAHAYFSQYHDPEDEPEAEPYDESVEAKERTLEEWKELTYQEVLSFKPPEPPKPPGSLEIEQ

[4] = read-out: Kinase in vitro IC50(nM) p38γ
[5] = read-out: Kinase in vitro IC50(nM) p38α
[6] = read-out: Kinase in vitro IC50(nM) p38β

Structure (SMILES) | IC50 [1, 4] [nM] | IC50 [2, 5] [nM] | IC50 [3, 6] [nM] | IC50 [1] [nM] | IC50 [2] [nM] | IC50 [3] [nM]
O=c1ncn2nc(OC3C=CCCC3)ccc2c1-c1c(Cl)cccc1Cl (stereo not drawn) [Compound I-37, 2-(cyclohex-2-en-1-yloxy)-5-(2,6-dichlorophenyl)-6H-pyrimido[1,6-b]pyridazin-6-one] | > 3330 | 503 | 2830 | – | – | –
CCOc1ccc2c(-c3c(Cl)cccc3Cl)c(=O)ncn2n1 [Compound I-7, 5-(2,6-dichlorophenyl)-2-ethoxy-6H-pyrimido[1,6-b]pyridazin-6-one] | > 3330 | 1680 | > 3330 | – | – | –
CNC(=O)c1ccc(Cl)c(-c2c(=O)ncn3nc(Oc4ccc(F)cc4F)ccc23)c1 [Compound I-51, 4-chloro-3-(2-(2,4-difluorophenoxy)-6-oxo-6H-pyrimido[1,6-b]pyridazin-5-yl)-N-methylbenzamide] | > 3330 | 17.5 | 256 | – | – | –
O=c1ncn2nc(Oc3ccc(F)cc3F)c(N3CCOCC3)cc2c1-c1c(Cl)cccc1Cl [Compound I-61, 5-(2,6-dichlorophenyl)-2-(2,4-difluorophenoxy)-3-morpholinyl-6H-pyrimido[1,6-b]pyridazin-6-one] | > 3330 | 11.7 | 32.7 | – | – | –
COC(=O)c1ccc(OC)c(-c2c(=O)ncn3nc(Oc4ccc(F)cc4F)ccc23)c1 [Compound I-55, methyl 3-[2-(2,4-difluorophenoxy)-6-oxo-pyrimido[1,6-b]pyridazin-5-yl]-4-methoxybenzoate] | > 3330 | 17.7 | 117 | – | – | –
O=c1ncn2nc(OC3CCOCC3)ccc2c1-c1c(Cl)cccc1Cl [Compound I-2, 5-(2,6-dichlorophenyl)-2-((tetrahydro-2H-pyran-4-yl)oxy)-6H-pyrimido[1,6-b]pyridazin-6-one] | > 3330 | 2690 | > 3330 | – | – | –
O=c1ncn2nc(Oc3ccc(F)cc3F)c(-c3ccncc3)cc2c1-c1c(Cl)cccc1Cl [Compound I-59, 5-(2,6-dichlorophenyl)-2-(2,4-difluorophenoxy)-3-(pyridin-4-yl)-6H-pyrimido[1,6-b]pyridazin-6-one] | > 3330 | 81.3 | 1220 | – | – | –
N#Cc1ccc(Oc2ccc3c(-c4c(Cl)cccc4Cl)c(=O)ncn3n2)cc1 [Compound I-26, 4-((5-(2,6-dichlorophenyl)-6-oxo-6H-pyrimido[1,6-b]pyridazin-2-yl)oxy)benzonitrile] | > 3330 | > 3330 | > 3330 | – | – | –
Cc1cccc(C)c1-c1c(=O)ncn2nc(Oc3ccc(F)cc3F)ccc12 [Compound I-45, 2-(2,4-difluorophenoxy)-5-(2,6-dimethylphenyl)-6H-pyrimido[1,6-b]pyridazin-6-one] | > 3330 | 35.4 | 643 | – | – | –
O=c1ncn2nc(OCC(F)(F)F)ccc2c1-c1c(Cl)cccc1Cl [Compound I-13, 5-(2,6-dichlorophenyl)-2-(2,2,2-trifluoroethoxy)-6H-pyrimido[1,6-b]pyridazin-6-one] | > 3330 | > 3330 | > 3330 | – | – | –
Cc1cc(Cl)ccc1Oc1ccc2c(-c3c(Cl)cccc3Cl)c(=O)ncn2n1 [Compound I-34, 2-(4-chloro-2-methylphenoxy)-5-(2,6-dichlorophenyl)-6H-pyrimido[1,6-b]pyridazin-6-one] | > 3330 | 49.8 | 389 | – | – | –
O=c1ncn2nc(OC3CCCC=C3Cl)ccc2c1-c1c(Cl)cccc1Cl (stereo not drawn) [Compound I-42, 2-((2-chlorocyclohex-2-en-1-yl)oxy)-5-(2,6-dichlorophenyl)-6H-pyrimido[1,6-b]pyridazin-6-one] | > 3330 | 228 | 686 | – | – | –
O=c1ncn2nc(Oc3cccc(F)c3)ccc2c1-c1c(Cl)cccc1Cl [Compound I-25, 5-(2,6-dichlorophenyl)-2-(3-fluorophenoxy)-6H-pyrimido[1,6-b]pyridazin-6-one] | > 3330 | 151 | 1430 | – | – | –
O=c1ncn2nc(Oc3ccc(F)cc3F)ccc2c1-c1ccc(Cl)c(Cl)c1 [Compound I-58, 5-(3,4-dichlorophenyl)-2-(2,4-difluorophenoxy)-6H-pyrimido[1,6-b]pyridazin-6-one] | > 3330 | 137 | > 3330 | – | – | –
O=c1ncn2nc(Oc3ccc(F)cc3F)ccc2c1-c1c(F)cccc1F [Compound I-49, 2-(2,4-difluorophenoxy)-5-(2,6-difluorophenyl)-6H-pyrimido[1,6-b]pyridazin-6-one] | > 3330 | 14.1 | 213 | – | – | –
O=c1ncn2nc(Oc3cncc(F)c3)ccc2c1-c1c(Cl)cccc1Cl [Compound I-24, 5-(2,6-dichlorophenyl)-2-((5-fluoropyridin-3-yl)oxy)-6H-pyrimido[1,6-b]pyridazin-6-one] | > 3330 | 1980 | > 3330 | – | – | –
COc1ccc(Oc2ccc3c(-c4c(Cl)cccc4Cl)c(=O)ncn3n2)c(Cl)c1 [Compound I-9, 2-(2-chloro-4-methoxyphenoxy)-5-(2,6-dichlorophenyl)-6H-pyrimido[1,6-b]pyridazin-6-one] | > 3330 | 112 | 301 | – | – | –
O=c1ncn2nc(Oc3ccc(Cl)cc3)ccc2c1-c1c(Cl)cccc1Cl [Compound I-33] | > 3330 | 24 | 470 | – | – | –
CC(Oc1ccc2c(-c3c(Cl)cccc3Cl)c(=O)ncn2n1)c1ccc(F)cc1F (stereo not drawn) [Compound I-41, 5-(2,6-dichlorophenyl)-2-(1-(2,4-difluorophenyl)ethoxy)-6H-pyrimido[1,6-b]pyridazin-6-one] | > 3330 | > 3330 | > 3330 | – | – | –
O=c1ncn2nc(Oc3ccc(F)cc3F)ccc2c1-c1c(F)cc(F)cc1F [Compound I-57, 5-(2,4,6-trifluorophenyl)-2-(2,4-difluorophenoxy)-6H-pyrimido[1,6-b]pyridazin-6-one] | > 3330 | 22.7 | 614 | – | – | –
O=c1ncn2nc(OC3CCOC3)ccc2c1-c1c(Cl)cccc1Cl (stereo not drawn) [Compound I-3, 5-(2,6-dichlorophenyl)-2-((tetrahydrofuran-3-yl)oxy)-6H-pyrimido[1,6-b]pyridazin-6-one] | > 3330 | > 3330 | > 3330 | – | – | –
O=c1ncn2nc(Oc3ccc(F)cc3F)ccc2c1-c1ccc(Cl)cc1Cl [Compound I-56, 5-(2,4-dichlorophenyl)-2-(2,4-difluorophenoxy)-6H-pyrimido[1,6-b]pyridazin-6-one] | > 3330 | 19.6 | 479 | – | – | –
Cc1ccc(Oc2ccc3c(-c4c(Cl)cccc4Cl)c(=O)ncn3n2)cc1F [Compound I-11, 5-(2,6-dichlorophenyl)-2-(3-fluoro-4-methylphenoxy)-6H-pyrimido[1,6-b]pyridazin-6-one] | > 3330 | 137 | 1220 | – | – | –
O=c1ncn2nc(OC3CC=CC3)ccc2c1-c1c(Cl)cccc1Cl [Compound I-38, 2-(cyclopent-3-en-1-yloxy)-5-(2,6-dichlorophenyl)-6H-pyrimido[1,6-b]pyridazin-6-one] | > 3330 | 414 | 2160 | – | – | –
Cc1cc(F)ccc1Oc1ccc2c(-c3c(Cl)cccc3Cl)c(=O)ncn2n1 [Compound I-28, 5-(2,6-dichlorophenyl)-2-(4-fluoro-2-methylphenoxy)-6H-pyrimido[1,6-b]pyridazin-6-one] | > 3330 | 38.8 | > 3330 | – | – | –
O=c1ncn2nc(OCC(F)F)ccc2c1-c1c(Cl)cccc1Cl [Compound I-8, 5-(2,6-dichlorophenyl)-2-(2,2-difluoroethoxy)-6H-pyrimido[1,6-b]pyridazin-6-one] | > 3330 | > 3330 | > 3330 | – | – | –
O=c1ncn2nc(OC3CC(F)(F)C3)ccc2c1-c1c(Cl)cccc1Cl [Compound I-1, 5-(2,6-dichlorophenyl)-2-(3,3-difluorocyclobutoxy)-6H-pyrimido[1,6-b]pyridazin-6-one] | – | – | – | > 3330 | > 3330 | > 3330
O=c1ncn2nc(Oc3ccc(F)cc3F)ccc2c1C1=CCCCC1 [Compound I-44, 5-(cyclohex-1-en-1-yl)-2-(2,4-difluorophenoxy)-6H-pyrimido[1,6-b]pyridazin-6-one] | > 3330 | 31 | 635 | – | – | –
O=c1ncn2nc(NC3CC(F)(F)C3)ccc2c1-c1c(Cl)cccc1Cl [Compound I-14, 5-(2,6-dichlorophenyl)-2-((3,3-difluorocyclobutyl)amino)-6H-pyrimido[1,6-b]pyridazin-6-one] | > 3330 | 1350 | > 3330 | – | – | –
